Converted amounts (≈) assume the structure as drawn. Where two headings read alike, the source gives them in different places.
Assays:
Assay in all cases: Antibacterial activity (MIC), standard method of Japan Society of Chemotherapy
Type in all cases: cell-based
[1] = test system: E. coli, NIHJ; conditions: Escherichia coli, read-out: minimum inhibitory concentration (MIC)
Experimental: (§1) Examples of the present invention are given below by way of illustration and not by way of limitation. In this connection, antibacterial activity of each compound of interest was measured in accordance with the standard method designated by Japan Society of Chemotherapy. The results are shown in Tables 1 to 3 as minimum inhibitory concentration (MIC, µg/ml).

[2] = test system: Pr. mirabilis, IFO-3849; conditions: Proteus mirabilis, IFO3849, strain Pr. mirabilis, read-out: minimum inhibitory concentration (MIC)
Experimental: as §1

[3] = test system: Pr. vulgaris, 08601
Experimental: as §1

[4] = test system: Ps. aeruginosa, 32104; conditions: Pseudomonas aeruginosa, strain Ps. aeruginosa, read-out: minimum inhibitory concentration (MIC)
Experimental: as §1

[5] = test system: Ps. aeruginosa, 32121; conditions: Pseudomonas aeruginosa, strain Ps. aeruginosa, read-out: minimum inhibitory concentration (MIC)
Experimental: as §1

[6] = test system: Ps. maltophilia, IID-1275; conditions: Stenotrophomonas maltophilia, IID1275, strain Ps. maltophilia, read-out: minimum inhibitory concentration (MIC)
Experimental: as §1

[7] = test system: S. aureus, 209P; conditions: Staphylococcus aureus, strain S. aureus, read-out: minimum inhibitory concentration (MIC)
Experimental: as §1

[8] = test system: S. aureus, 870307; conditions: Staphylococcus aureus, strain S. aureus, read-out: minimum inhibitory concentration (MIC)
Experimental: as §1

[9] = test system: S. epidermidis, 56500
Experimental: as §1

[10] = test system: S. flexneli, 2A 5503; conditions: strain S. flexneli, read-out: minimum inhibitory concentration (MIC)
Experimental: as §1

[11] = test system: Ser. marcescens, 10100; conditions: Serratia marcescens, strain Ser. marcescens, read-out: minimum inhibitory concentration (MIC)
Experimental: as §1

[12] = test system: Str. faecalis, ATCC-19433; conditions: Enterococcus faecalis, ATCC19433, strain Str. faecalis, read-out: minimum inhibitory concentration (MIC)
Experimental: as §1

[13] = test system: Str. pyogenes, G-36; conditions: Streptococcus pyogenes
Experimental: as §1

[14] = Proteus vulgaris, strain Pr. vulgaris, 08601, read-out: minimum inhibitory concentration (MIC)
[15] = Staphylococcus epidermidis, 56500, read-out: minimum inhibitory concentration (MIC)
[16] = G36, strain Str. pyogenes, G-36, read-out: minimum inhibitory concentration (MIC)
[17] = Staphylococcus epidermidis, strain S. epidermidis, 56500, read-out: minimum inhibitory concentration (MIC)

| SMILES | MIC [1] [µg/mL] | MIC [2] [µg/mL] | MIC [3, 14] [µg/mL] | MIC [4] [µg/mL] | MIC [5] [µg/mL] | MIC [6] [µg/mL] | MIC [7] [µg/mL] | MIC [8] [µg/mL] | MIC [9, 15] [µg/mL] | MIC [10] [µg/mL] | MIC [11] [µg/mL] | MIC [12] [µg/mL] | MIC [13, 16] [µg/mL] | MIC ([1]; strain E. coli, NIHJ) [µg/mL] | MIC ([13]; G36, read-out: minimum inhibitory concentration (MIC)) [µg/mL] | MIC [9, 17] [µg/mL] | MIC ([3]; Proteus vulgaris, 08601, read-out: minimum inhibitory concentration (MIC)) [µg/mL] |
| --- | --- | --- | --- | --- | --- | --- | --- | --- | --- | --- | --- | --- | --- | --- | --- | --- | --- |
| CO[C@H]1CN(c2c(F)c(N)c3c(=O)c(C(=O)O)cn([C@@H]4C[C@@H]4F)c3c2C)C[C@@H]1C1(N)CC1 [compound 4] | 0.013 (≈ 0.029 µM) | 0.2 (≈ 0.446 µM) | 0.1 (≈ 0.223 µM) | 0.78 (≈ 1.74 µM) | 0.39 (≈ 0.87 µM) | 0.2 (≈ 0.446 µM) | ≤ 0.003 | 0.1 (≈ 0.223 µM) | 0.013 (≈ 0.029 µM) | 0.013 (≈ 0.029 µM) | 0.2 (≈ 0.446 µM) | 0.1 (≈ 0.223 µM) | 0.025 (≈ 0.0557 µM) |  |  |  |  |
| Cc1c(N2C[C@H](F)[C@@H](C3(N)CC3)C2)c(F)c(N)c2c(=O)c(C(=O)O)cn([C@@H]3C[C@@H]3F)c12 [compound 5] |  | 0.025 (≈ 0.0573 µM) | 0.013 (≈ 0.0298 µM) | 0.1 (≈ 0.229 µM) | 0.05 (≈ 0.115 µM) | 0.05 (≈ 0.115 µM) | ≤ 0.003 | 0.006 (≈ 0.0137 µM) |  | ≤ 0.003 | 0.05 (≈ 0.115 µM) | 0.013 (≈ 0.0298 µM) | ≤ 0.003 | ≤ 0.003 |  |  |  |
| C[C@H]1COc2c(N3C[C@H](F)[C@@H](C4(N)CC4)C3)c(F)cc3c(=O)c(C(=O)O)cn1c23 [compound 6] |  | 0.2 (≈ 0.493 µM) | 0.05 (≈ 0.123 µM) | 0.78 (≈ 1.92 µM) | 0.2 (≈ 0.493 µM) | 0.39 (≈ 0.962 µM) | 0.006 (≈ 0.0148 µM) | 0.39 (≈ 0.962 µM) | 0.025 (≈ 0.0617 µM) | 0.025 (≈ 0.0617 µM) | 0.1 (≈ 0.247 µM) | 0.1 (≈ 0.247 µM) |  | 0.013 (≈ 0.0321 µM) | 0.025 (≈ 0.0617 µM) |  |  |
| Cc1c(N2C[C@H](C3(N)CC3)C(F)(F)C2)c(F)c(N)c2c(=O)c(C(=O)O)cn([C@@H]3C[C@@H]3F)c12 [compound 7] |  | 0.025 (≈ 0.055 µM) | 0.05 (≈ 0.11 µM) | 0.1 (≈ 0.22 µM) | 0.05 (≈ 0.11 µM) | 0.05 (≈ 0.11 µM) | ≤ 0.003 | 0.013 (≈ 0.0286 µM) |  | ≤ 0.003 | 0.05 (≈ 0.11 µM) | 0.013 (≈ 0.0286 µM) | ≤ 0.003 | ≤ 0.003 |  | ≤ 0.003 |  |
| C[C@H]1COc2c(N3C[C@H](C4(N)CC4)C(F)(F)C3)c(F)cc3c(=O)c(C(=O)O)cn1c23 [compound 8] |  | 0.78 (≈ 1.84 µM) | 0.1 (≈ 0.236 µM) | 1.56 (≈ 3.68 µM) | 0.39 (≈ 0.921 µM) | 0.39 (≈ 0.921 µM) | 0.025 (≈ 0.059 µM) | 0.78 (≈ 1.84 µM) |  | 0.05 (≈ 0.118 µM) | 0.39 (≈ 0.921 µM) | 0.2 (≈ 0.472 µM) | 0.1 (≈ 0.236 µM) | 0.025 (≈ 0.059 µM) |  | 0.05 (≈ 0.118 µM) |  |
| COc1c(N2C[C@@H](F)[C@@H](C3(N)CC3)C2)c(F)cc2c(=O)c(C(=O)O)cn([C@@H]3C[C@@H]3F)c12 [compound 12] |  | 0.05 (≈ 0.114 µM) |  | 0.39 (≈ 0.892 µM) | 0.1 (≈ 0.229 µM) | 0.2 (≈ 0.457 µM) | ≤ 0.003 | 0.025 (≈ 0.0572 µM) | 0.013 (≈ 0.0297 µM) | 0.013 (≈ 0.0297 µM) | 0.1 (≈ 0.229 µM) | 0.025 (≈ 0.0572 µM) | 0.006 (≈ 0.0137 µM) | ≤ 0.003 |  |  | 0.013 (≈ 0.0297 µM) |

— patent EP0911328B1, “SUBSTITUTED AMINOCYCLOALKYLPYRROLIDINE DERIVATIVES” (DAIICHI PHARMACEUTICAL CO., LTD., priority 1995, dated 1997)
